According to the supplement of paper PMC12463676, “Small-molecule dissolution of stress granules by redox modulation benefits ALS models” (Nature Chemical Biology, 2025):

compound: NC(=O)CCCCC1CCSS1 [lipoamide]; test: thermal stability z-score vs DMSO; higher = more thermally stabilized by treatment; settings: HeLa; lipoamide concentration 100 µM; arsenate co-treatment: 1 mM arsenate 1 h
Experimental: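 Cellular thermal proteome profiling in HeLa cells. Cells were treated with 100 µM lipoamide for 1 h, with or without 1 mM arsenate for a further 1 h, then heated to ten temperatures (37-66.3 °C), and soluble protein was quantified by TMT mass spectrometry relative to 0.1% DMSO controls. The thermal stability score (sum of log2 fold changes minus the abundance score) was transformed to a z-score; mean of n = 3 experiments.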
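Further: each temperature applied for 3 min, abundance score taken as mean log2 fold change at the two lowest temperatures, z-score obtained by mean subtraction and division by SD.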

Sequence of UniProt P12270 (P12270 whole entry): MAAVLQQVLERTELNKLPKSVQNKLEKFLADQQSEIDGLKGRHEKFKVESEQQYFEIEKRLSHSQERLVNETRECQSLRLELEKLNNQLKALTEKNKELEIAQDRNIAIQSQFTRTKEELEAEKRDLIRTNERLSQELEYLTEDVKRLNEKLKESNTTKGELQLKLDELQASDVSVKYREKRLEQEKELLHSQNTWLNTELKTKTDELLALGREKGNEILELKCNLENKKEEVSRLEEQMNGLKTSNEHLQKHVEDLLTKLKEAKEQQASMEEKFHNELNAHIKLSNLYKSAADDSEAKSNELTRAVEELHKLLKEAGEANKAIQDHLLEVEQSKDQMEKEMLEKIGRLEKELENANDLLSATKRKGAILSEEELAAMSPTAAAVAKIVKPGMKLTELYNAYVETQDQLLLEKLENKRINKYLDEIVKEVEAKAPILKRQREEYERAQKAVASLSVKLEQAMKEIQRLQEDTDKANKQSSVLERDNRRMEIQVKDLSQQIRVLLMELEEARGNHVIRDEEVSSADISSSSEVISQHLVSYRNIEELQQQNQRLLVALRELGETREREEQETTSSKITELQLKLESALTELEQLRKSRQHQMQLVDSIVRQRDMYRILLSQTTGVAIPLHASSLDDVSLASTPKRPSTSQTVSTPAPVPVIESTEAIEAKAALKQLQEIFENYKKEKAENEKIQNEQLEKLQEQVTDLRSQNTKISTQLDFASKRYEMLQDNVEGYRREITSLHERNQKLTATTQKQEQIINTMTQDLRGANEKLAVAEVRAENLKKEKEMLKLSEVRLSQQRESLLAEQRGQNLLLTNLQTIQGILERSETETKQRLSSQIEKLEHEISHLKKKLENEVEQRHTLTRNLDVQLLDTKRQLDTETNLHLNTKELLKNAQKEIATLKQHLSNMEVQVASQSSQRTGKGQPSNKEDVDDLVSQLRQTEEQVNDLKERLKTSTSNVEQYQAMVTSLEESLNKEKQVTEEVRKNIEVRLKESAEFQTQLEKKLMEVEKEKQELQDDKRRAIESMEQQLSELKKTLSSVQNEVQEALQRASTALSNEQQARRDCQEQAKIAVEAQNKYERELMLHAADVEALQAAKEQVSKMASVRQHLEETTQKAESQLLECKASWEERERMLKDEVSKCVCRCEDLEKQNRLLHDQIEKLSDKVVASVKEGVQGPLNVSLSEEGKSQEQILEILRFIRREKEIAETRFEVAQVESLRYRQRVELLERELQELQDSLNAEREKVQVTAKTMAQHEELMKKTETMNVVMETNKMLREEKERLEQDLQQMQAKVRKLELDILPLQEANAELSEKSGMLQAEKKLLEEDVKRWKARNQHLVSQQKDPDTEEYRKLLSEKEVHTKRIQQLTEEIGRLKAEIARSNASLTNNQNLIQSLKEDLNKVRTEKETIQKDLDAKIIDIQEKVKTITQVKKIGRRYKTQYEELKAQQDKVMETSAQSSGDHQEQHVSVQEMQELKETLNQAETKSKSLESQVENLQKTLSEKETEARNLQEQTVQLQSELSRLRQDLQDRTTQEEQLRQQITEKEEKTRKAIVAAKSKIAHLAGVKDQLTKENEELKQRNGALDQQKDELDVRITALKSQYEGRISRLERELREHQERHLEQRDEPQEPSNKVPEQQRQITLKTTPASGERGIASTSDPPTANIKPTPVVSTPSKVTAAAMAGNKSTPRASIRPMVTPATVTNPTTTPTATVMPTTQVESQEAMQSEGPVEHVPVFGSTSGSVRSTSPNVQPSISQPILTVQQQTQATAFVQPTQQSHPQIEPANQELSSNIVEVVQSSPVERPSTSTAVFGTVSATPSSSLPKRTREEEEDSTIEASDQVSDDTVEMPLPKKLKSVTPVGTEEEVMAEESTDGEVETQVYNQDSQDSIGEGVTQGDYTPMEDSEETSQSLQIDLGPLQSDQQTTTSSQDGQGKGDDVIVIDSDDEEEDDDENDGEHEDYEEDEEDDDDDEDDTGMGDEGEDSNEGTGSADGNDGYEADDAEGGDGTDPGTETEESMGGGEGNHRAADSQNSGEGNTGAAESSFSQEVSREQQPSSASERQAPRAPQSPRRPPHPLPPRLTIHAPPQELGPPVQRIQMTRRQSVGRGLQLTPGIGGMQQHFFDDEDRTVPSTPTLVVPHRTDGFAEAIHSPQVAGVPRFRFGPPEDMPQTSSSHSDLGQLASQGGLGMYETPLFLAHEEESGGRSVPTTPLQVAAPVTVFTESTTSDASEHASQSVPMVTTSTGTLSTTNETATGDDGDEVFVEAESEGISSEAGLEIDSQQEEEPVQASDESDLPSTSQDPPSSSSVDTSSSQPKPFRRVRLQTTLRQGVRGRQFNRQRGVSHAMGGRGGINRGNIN
Sequence of UniProt P17858 (P17858 whole entry): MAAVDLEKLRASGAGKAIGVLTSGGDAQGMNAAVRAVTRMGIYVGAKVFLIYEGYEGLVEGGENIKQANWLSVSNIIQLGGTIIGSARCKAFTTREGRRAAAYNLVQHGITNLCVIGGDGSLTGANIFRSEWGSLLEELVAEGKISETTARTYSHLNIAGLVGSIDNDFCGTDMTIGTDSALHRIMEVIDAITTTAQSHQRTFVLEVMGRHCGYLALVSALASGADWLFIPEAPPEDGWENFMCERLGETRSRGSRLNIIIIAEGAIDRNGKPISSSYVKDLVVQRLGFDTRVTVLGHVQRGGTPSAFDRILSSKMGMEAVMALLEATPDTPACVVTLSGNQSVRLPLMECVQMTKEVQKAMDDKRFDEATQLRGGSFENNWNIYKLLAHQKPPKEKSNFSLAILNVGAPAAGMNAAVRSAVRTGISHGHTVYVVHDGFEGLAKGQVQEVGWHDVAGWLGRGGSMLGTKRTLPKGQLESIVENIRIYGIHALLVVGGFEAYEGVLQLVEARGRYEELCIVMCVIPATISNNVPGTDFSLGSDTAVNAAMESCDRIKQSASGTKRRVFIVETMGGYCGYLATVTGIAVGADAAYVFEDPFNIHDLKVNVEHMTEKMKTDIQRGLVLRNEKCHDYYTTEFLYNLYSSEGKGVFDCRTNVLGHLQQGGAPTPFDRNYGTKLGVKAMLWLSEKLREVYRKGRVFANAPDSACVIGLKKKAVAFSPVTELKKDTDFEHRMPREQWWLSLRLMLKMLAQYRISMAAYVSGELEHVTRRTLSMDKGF
Sequence of UniProt Q9NXG0 (Q9NXG0 whole entry): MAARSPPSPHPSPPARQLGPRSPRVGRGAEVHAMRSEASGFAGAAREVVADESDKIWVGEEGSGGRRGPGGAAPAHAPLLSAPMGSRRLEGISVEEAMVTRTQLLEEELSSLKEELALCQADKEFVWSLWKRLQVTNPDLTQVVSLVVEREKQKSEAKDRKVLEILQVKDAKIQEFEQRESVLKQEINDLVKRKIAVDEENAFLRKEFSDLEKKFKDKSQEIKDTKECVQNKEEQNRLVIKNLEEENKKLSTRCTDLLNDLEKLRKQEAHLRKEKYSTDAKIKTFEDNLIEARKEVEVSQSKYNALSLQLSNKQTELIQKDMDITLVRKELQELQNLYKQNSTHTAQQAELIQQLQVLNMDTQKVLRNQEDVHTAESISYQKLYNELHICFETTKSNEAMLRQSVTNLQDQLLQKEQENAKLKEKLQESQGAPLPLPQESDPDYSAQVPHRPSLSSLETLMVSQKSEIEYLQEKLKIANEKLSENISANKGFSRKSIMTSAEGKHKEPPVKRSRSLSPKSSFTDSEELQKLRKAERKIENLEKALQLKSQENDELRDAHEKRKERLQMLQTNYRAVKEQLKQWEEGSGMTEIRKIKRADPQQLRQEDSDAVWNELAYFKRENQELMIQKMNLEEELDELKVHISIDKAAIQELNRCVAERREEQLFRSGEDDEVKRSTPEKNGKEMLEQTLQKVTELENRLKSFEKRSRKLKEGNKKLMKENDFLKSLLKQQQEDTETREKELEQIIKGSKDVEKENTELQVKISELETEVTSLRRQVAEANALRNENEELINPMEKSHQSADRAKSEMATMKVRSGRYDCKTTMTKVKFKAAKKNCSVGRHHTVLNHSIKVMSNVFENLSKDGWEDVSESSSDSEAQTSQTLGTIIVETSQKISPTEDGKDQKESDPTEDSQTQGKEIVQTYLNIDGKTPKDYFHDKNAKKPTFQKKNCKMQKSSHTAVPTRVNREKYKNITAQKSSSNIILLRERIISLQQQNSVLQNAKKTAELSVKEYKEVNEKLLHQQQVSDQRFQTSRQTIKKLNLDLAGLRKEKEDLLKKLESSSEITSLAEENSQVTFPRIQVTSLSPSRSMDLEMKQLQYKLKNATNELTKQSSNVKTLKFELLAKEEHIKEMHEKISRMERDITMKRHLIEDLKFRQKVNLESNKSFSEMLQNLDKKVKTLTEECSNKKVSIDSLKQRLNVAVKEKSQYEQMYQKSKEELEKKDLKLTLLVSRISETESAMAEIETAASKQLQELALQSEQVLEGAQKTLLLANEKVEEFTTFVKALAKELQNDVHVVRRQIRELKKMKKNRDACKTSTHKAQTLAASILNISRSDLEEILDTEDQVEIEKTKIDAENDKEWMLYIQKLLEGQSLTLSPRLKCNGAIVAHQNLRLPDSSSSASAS
Sequence of UniProt Q9Y3E0 (Q9Y3E0 whole entry): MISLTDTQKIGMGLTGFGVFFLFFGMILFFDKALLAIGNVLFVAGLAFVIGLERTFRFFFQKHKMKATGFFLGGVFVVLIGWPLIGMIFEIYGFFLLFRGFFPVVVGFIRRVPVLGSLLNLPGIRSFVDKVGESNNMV
Sequence of UniProt O95456 (O95456 whole entry): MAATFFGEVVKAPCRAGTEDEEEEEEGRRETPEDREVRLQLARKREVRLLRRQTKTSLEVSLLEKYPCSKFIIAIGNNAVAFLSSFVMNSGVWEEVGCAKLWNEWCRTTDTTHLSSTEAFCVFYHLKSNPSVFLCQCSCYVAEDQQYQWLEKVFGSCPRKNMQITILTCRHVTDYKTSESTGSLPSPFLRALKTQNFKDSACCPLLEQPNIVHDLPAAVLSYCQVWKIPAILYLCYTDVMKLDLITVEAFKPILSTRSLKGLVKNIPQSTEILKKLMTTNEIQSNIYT
Sequence of UniProt P56211 (P56211 whole entry): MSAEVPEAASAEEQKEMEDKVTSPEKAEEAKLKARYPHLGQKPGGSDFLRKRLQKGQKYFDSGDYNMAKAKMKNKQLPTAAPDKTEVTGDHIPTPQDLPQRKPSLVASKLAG

Target	thermal stability z-score
GOLT1B (UniProt Q9Y3E0)	0.0321
USP8 (UniProt P40818)	-0.401
TSC2 (UniProt P49815)	0.021
AKAP8L (UniProt Q9ULX6)	0.0418
LIN7C (UniProt Q9NUP9)	0.138
ING1 (UniProt Q9UK53)	1.11
JUP (UniProt P14923)	2.23
HDHD2 (UniProt Q9H0R4)	0.338
GABARAP (UniProt O95166)	-0.21
KCTD12 (UniProt Q96CX2)	0.867
PSMG1 (UniProt O95456)	1.07
ZNF609 (UniProt O15014)	0.0184
CFL2 (UniProt Q9Y281)	0.497
PALLD (UniProt Q8WX93)	-0.57
PDZD11 (UniProt Q5EBL8)	-0.0819
NCSTN (UniProt Q92542)	-0.537
UCK1 (UniProt Q9HA47)	-0.206
TPR (UniProt P12270)	2.13

Target	thermal stability z-score
UniProt F5GYJ5	0.464
RPL31 (UniProt P62899)	-0.223
ARFGAP2 (UniProt Q8N6H7)	-0.346
GAK (UniProt O14976)	0.338
IPO8 (UniProt O15397)	-0.327
MTSS1L (UniProt Q765P7)	0.179
CD81 (UniProt P60033)	-0.142
ARPP19 (UniProt P56211)	0.84
CNTLN (UniProt Q9NXG0)	-0.163
GALK1 (UniProt P51570)	-0.559
YKT6 (UniProt O15498)	-0.198
SLC38A5 (UniProt Q8WUX1)	0.333
TOR1AIP2	-3.46
ATP9A (UniProt O75110)	0.482
PFKL (UniProt P17858)	0.344
AHNAK2 (UniProt Q8IVF2)	0.924
PIN1 (UniProt Q13526)	0.355
KCTD5 (UniProt Q9NXV2)	-1.92

same assay, conditions: HeLa; lipoamide concentration 100 µM; arsenate co-treatment: none

Target	thermal stability z-score
HMG20A (UniProt Q9NP66)	-0.371
HSP90AB4P (UniProt Q58FF6)	-0.21
PRPF4 (UniProt O43172)	1.6
CLTC (UniProt Q00610)	0.409
PTGS2 (UniProt P35354)	0.261
TECR (UniProt Q9NZ01)	-0.891
CMTR1 (UniProt Q8N1G2)	0.406
CNOT4 (UniProt O95628)	-0.00856
ITGA6 (UniProt P23229)	0.174
FAM114A1 (UniProt Q8IWE2)	-0.338
YEATS4 (UniProt O95619)	0.865
OSGEPL1 (UniProt Q9H4B0)	-0.263
SNX17 (UniProt Q15036)	0.118
SAC3D1 (UniProt A6NKF1)	-1.63
RPL28 (UniProt P46779)	0.375
SARAF (UniProt Q96BY9)	-0.0205
SNAP29 (UniProt O95721)	0.547
C1ORF131 (UniProt Q8NDD1)	-0.388
SYNE2 (UniProt Q8WXH0)	0.18
CRYBG3 (UniProt Q68DQ2)	0.00468
CLCN7 (UniProt P51798)	-0.489
CCNB2 (UniProt O95067)	-0.108
CD59 (UniProt P13987)	0.698
PSMG3 (UniProt Q9BT73)	-0.0166

Target	thermal stability z-score
GNPAT (UniProt O15228)	0.296
TAF7 (UniProt Q15545)	-0.347
PPP1CA (UniProt P62136)	-0.27
SLC43A3 (UniProt Q8NBI5)	0.53
ABI2 (UniProt Q9NYB9)	0.978
VPS29 (UniProt Q9UBQ0)	-0.247
L2HGDH (UniProt Q9H9P8)	-0.362
HAUS7 (UniProt Q99871)	-0.0345
SBDS (UniProt Q9Y3A5)	0.706
POLR1A (UniProt O95602)	-0.00373
EP300 (UniProt Q09472)	0.127
GOLT1B (UniProt Q9Y3E0)	0.0691
USP8 (UniProt P40818)	-0.0464
TSC2 (UniProt P49815)	-0.0212
AKAP8L (UniProt Q9ULX6)	-0.0231
LIN7C (UniProt Q9NUP9)	0.419
ING1 (UniProt Q9UK53)	0.466
JUP (UniProt P14923)	2.78
HDHD2 (UniProt Q9H0R4)	0.00313
GABARAP (UniProt O95166)	-0.417
KCTD12 (UniProt Q96CX2)	0.7
PSMG1 (UniProt O95456)	0.507
ZNF609 (UniProt O15014)	-0.0967
CFL2 (UniProt Q9Y281)	0.000804

Target	thermal stability z-score
PALLD (UniProt Q8WX93)	0.141
PDZD11 (UniProt Q5EBL8)	-0.0179
NCSTN (UniProt Q92542)	-0.624
UCK1 (UniProt Q9HA47)	-0.165
TPR (UniProt P12270)	1.1
UniProt F5GYJ5	0.437
RPL31 (UniProt P62899)	-0.0856
ARFGAP2 (UniProt Q8N6H7)	-0.143
GAK (UniProt O14976)	-0.0197
IPO8 (UniProt O15397)	-0.557
MTSS1L (UniProt Q765P7)	0.0525
CD81 (UniProt P60033)	-0.642
ARPP19 (UniProt P56211)	0.316
CNTLN (UniProt Q9NXG0)	-0.342
GALK1 (UniProt P51570)	-0.412
YKT6 (UniProt O15498)	0.453
SLC38A5 (UniProt Q8WUX1)	-0.181
TOR1AIP2	-2.77
ATP9A (UniProt O75110)	0.278
PFKL (UniProt P17858)	0.367
AHNAK2 (UniProt Q8IVF2)	0.899
PIN1 (UniProt Q13526)	0.305
KCTD5 (UniProt Q9NXV2)	-1.4
